Measurements published in patent publication US12539279B2, “Supramolecular ionizable lipid molecules with heteroatomic tuning for nucleic acid delivery” (priority 2023, dated 2026).
Entries after “also recorded” stand apart in the source; their conditions may differ. Like-named read-outs stand apart in the source and are kept apart here. One block for each molecule: values may come before it.

Experiments:
[1] = mRNA encapsulation efficiency (modified Quant-iT RiboGreen assay); format: physicochemical; conditions: LNP before freezing
Protocol: For LNPs encapsulating mRNA, mRNA concentration and encapsulation efficiency were determined using a modified Quant-iT RiboGreen assay (Invitrogen). The assay was performed in triplicates in a 96 well plate. 12 μL of the LNP sample or TE buffer (composed of 10 mM Tris-HCl containing 1 mM EDTA·Na2) (blank sample) was diluted in 300 μL of 1×TE buffer pH 7.5. 50 μL of the diluted samples were transferred to 6 separate wells and either 50 μL of TE buffer or 50 μL of a 4% Triton X-100 solution in TE buffer was added to the wells. Two 6-point standard curves ([…]) were prepared in the same plate by diluting Firefly luciferase mRNA to a final volume of 100 μL in 2% Triton X-100 or TE buffer. The plate was then incubated for 10 min at 40° C. with gentle shaking. The Ribogreen reagent was diluted 1:100 in TE buffer, and 100 μL of this solution was added to each well. […] Fluorescence intensity was measured with a plate reader at an excitation wavelength of 480 nm and an emission wavelength of 525 nm. The raw fluorescence values were subtracted by the background fluorescence (blank sample). The concentration of free mRNA and total mRNA were determined by linear interpolation of the appropriate standard curve. Encapsulation efficiency was determined by dividing the calculated concentration of encapsulated mRNA by the total mRNA concentration in the LNP sample.

[2] = tested on: firefly luciferase protein expression; experiment: Intramuscular expression profile of formulated firefly luciferase mRNA in mice (IVIS); format: in vivo, BALB/c mice; conditions: intramuscular firefly luciferase mRNA-LNP
Protocol: (§1) All procedures used in animal studies conducted at the University of Toronto were approved by Institutional Animal Care and Use committee (IACUC) under protocol number 20012621 and comply with all applicable local, provincial, and federal regulations. Female BALB/c mice (7-8 weeks old) were purchased from Charles River Laboratories and acclimated for 1 to 2 weeks before initiation of the study.
Mice (n=4) were injected in both quadriceps with 0.5 μg of formulated firefly luciferase mRNA in 50 μL. At various timepoints (6 hours, 24 hours, 48 hours, and 96 hours post-dose), mice were injected intraperitoneally with 3 mg D-Luciferin (Thermo Scientific 88291) in 200 μL 1×PBS. 5 minutes later, mice were anesthetized and imaged on an in vivo imaging system (PerkinElmer, IVIS Spectrum) to measure total bioluminescent flux (photons/second) in each hindlimb (FIG. 2). The area under curve (AUC) for individual hindlimbs was determined with GraphPad Prism 9.

[3] = format: physicochemical
Protocol: Determination of the apparent pKa of LNPs was carried out using a TNS assay. Briefly, a series of buffers was generated by titrating a solution containing 10 mM citrate, 10 mM phosphate, 10 mM borate, and 150 mM NaCl with 1.0 M HCl. Aliquots of this combined buffer were taken to generate 12 total buffers ranging from pH 4.0 to 9.5 in increments of 0.5 pH. LNPs (diluted to 100 uM of ionizable lipid in distilled water) and 6-(p-toluidino)-2-naphthalenesulfonic acid (TNS, Sigma Aldrich, 60 uM in distilled water) were diluted into these buffers to a final concentration of 9 and 5.45 μM, respectively. The plate was covered and equilibrated at room temperature for 20 min. Fluorescence intensity was determined using a BioTek H1 Synergy plate reader (325 nm excitation/435 nm emission). The raw fluorescence values were fit using GraphPad Prism 8 to determine pKa, which corresponds to the pH value at 50% max fluorescence.

[4] = tested on: firefly luciferase mRNA expression in liver, spleen, lungs, heart, kidneys; experiment: Organ expression of firefly luciferase mRNA after intravenous injection in mice; format: in vivo, BALB/c mice; conditions: 6 hours post-dose; for organ in which the highest total flux was measured: intravenous 0.5 μg mRNA
Protocol: as §1
Mice (n=3) were injected intravenously (tail vein) with 0.5 μg of formulated firefly luciferase mRNA in 200 μL. At 6 hours post-dose, mice were injected intraperitoneally with 3 mg D-Luciferin (Thermo Scientific 88291) in 200 μL 1×PBS. 5 minutes later, mice were euthanized and key organs (liver, spleen, kidneys, lungs, and heart) were harvested and immediately imaged on an in vivo imaging system (PerkinElmer, IVIS Spectrum) to measure total bioluminescent flux (photons/second). LNPs formulated with compounds I-2, I-4, I-5, I-6, I-8 were tested for their ability to functionally deliver firefly luciferase mRNA to the major organs (liver, spleen, lungs, heart, kidneys) after intravenous injection and were compared to compounds I-12 and SM-102.

[5] = Pharmacokinetics after intramuscular injection of mRNA-LNPs in mice; format: in vivo, female CD-1 mice; conditions: for Kp / half-life / AUC(0-t) / Cmax: female; for half-life / AUC(0-t) / Cmax: CD-1; for half-life: I-12 estimate not considered accurate, read-out: estimated apparent half-life (t1/2) in plasma (converted); for AUC(0-t): read-out: Overall plasma exposure (AUC0-tlast); for Cmax: read-out: maximum plasma concentration (Cmax); for Overall tissue exposure (AUC0-tlast), liver: mouse liver; for Overall tissue exposure (AUC0-tlast), muscle: mouse muscle; for time of peak plasma level: 12.312 μg Compound I-12 or 12.764 μg Compound I-6; for Overall tissue exposure (AUC0-tlast), spleen: mouse spleen; for detection in urine: mouse urine
Protocol: Pharmacokinetic studies in mice were conducted according to Transpharmation Canada Ltd. standard operating procedures (SOPs) and accepted scientific practices but was not in accordance with the principles of Good Laboratory Practice (GLP). Two studies were conducted and have been combined for analysis. Their objective was to determine the concentrations of two ionizable lipids, Compound I-12, and Compound I-6, in plasma, muscle, liver, spleen, urine, and feces following intramuscular (IM) injection of each lipid to groups of female CD-1 mice. All animals received an intramuscular injection of one of the lipids, formulated as lipid nanoparticles (LNPs) with mRNA, into the right quadricep. Doses administered IM were 12.312 μg of Compound I-12 and 12.764 μg of Compound I-6, corresponding to 0.5 μg of mRNA formulated in LNPs. Animals in study 1 were group housed in metabolic cages (n=3 per cage) and euthanized at 6 timepoints (3, 6, 12, 24, 48 and 96 hours) over 4 days-post injection for the collection of blood, liver, spleen, and muscle (n=3/time-point). A single pooled urine and feces sample was also collected from each cage at the appropriate time-point. In study 2, animals were housed in shoebox cages and samples (n=4/time-point) were collected at 6, 12, 24, 48, 96 and 168 hours (Compound I-12 and Compound I-6) and at 21 days (I-12 only, n=3) post-dose. A single pooled feces sample was also collected from each cage at the time of cage changes and weighed following terminal collections. Blood samples were divided for bioanalysis and diagnostic testing. Data from both studies was combined for data analysis. Tandem liquid chromatography-mass spectrometry (LC-MS/MS) methods were developed for the quantification of Compound I-12 and Compound I-6 in mouse plasma, muscle, liver, spleen, urine, and feces. The qualified methods were used to determine the concentration of the analytes in each matrix. The pharmacokinetics (PK) parameters for Compound I-12 and Compound I-6 were estimated from the plasma, muscle, liver, and spleen concentration versus time curves for each animal using Phoenix® WinNonlin 8.3 (Certara, Mountainview, CA).

[6] = format: physicochemical; conditions: for time required to have measurable levels of hydrolysis: 2.5 eq. KOH in d4-methanol, 1H NMR
Protocol: Ionizable lipids including compounds described herein (2 μmol) were hydrolyzed with 2.5 eq. of KOH (200 μL, 0.025 M in d4-methanol) in a 3 mm NMR tube. 1H-NMR was acquired with a 700 MHz Agilent DD2 Spectrometer every 5 min for a total of 180 min. Additionally, spectra were acquired at 24 h, 48 h, 72 h, 144 h, 192 h, and 240 h for I-12, ALC-0315, and DLin-MC3-DMA. Data acquisition started ˜10 min after the start of the reaction due to sample preparation and tune/lock/shim. Ester peaks were integrated using MestReNova and normalized to value at t=0 min. The data series were fitted to a one phase decay exponential following y=e, where k is the rate of hydrolysis.

[7] = CD-1, liver, mouse, IM mRNA-LNP, read-out: tissue/plasma AUC ratio, liver
[8] = CD-1, muscle, mouse, IM mRNA-LNP, read-out: tissue/plasma AUC ratio, muscle
[9] = CD-1, spleen, mouse, IM mRNA-LNP, read-out: tissue/plasma AUC ratio, spleen

Molecule: CCCCCCCCCCN(CCCCCCCCCC)CCOC(=O)CCN(CCO)CCC(=O)OCCN(CCCCCCCCCC)CCCCCCCCCC [Compound I-1]
mRNA encapsulation efficiency relative to amide analogue (Compound I-12) [1]: significantly reduced | intramuscular expression (in words) [2]: significantly reduced intramuscular expression | Apparent pKa relative to amide analogue (Compound I-12 / F16) [3]: significantly reduced

Molecule: CCCCCCCCCCN(CCCCCCCCCC)CCCOC(=O)CCN(CCO)CCC(=O)OCCCN(CCCCCCCCCC)CCCCCCCCCC [Compound I-2]
organ in which the highest total flux was measured [4]: liver | fraction of expression in the spleen compared with SM-102 ([4]; intravenous): higher fraction of expression in the spleen than SM-102

Molecule: CCCCCCCCCCN(CCCCCCCCCC)CCCOC(=O)CCCN(CCO)CCCC(=O)OCCCN(CCCCCCCCCC)CCCCCCCCCC [Compound I-4]
organ in which the highest total flux was measured [4]: liver | fraction of expression in the spleen compared with SM-102 ([4]; intravenous): higher fraction of expression in the spleen than SM-102 | intramuscular expression (in words) [2]: higher intramuscular expression than DLin-MC3-DMA | Apparent pKa [3]: 6-7

Molecule: CCCCCCCCCCN(CCCCCCCCCC)CCCOC(=O)CCCCN(CCO)CCCCC(=O)OCCCN(CCCCCCCCCC)CCCCCCCCCC [Compound I-6]
expression compared with SM-102 in spleen and liver ([4]; intravenous): higher expression than SM-102 in the spleen but not in the liver | expression in organs among the compounds related to this disclosure ([4]; intravenous): highest expression in all organs | fraction of expression in the spleen compared with SM-102 ([4]; intravenous): higher fraction of expression in the spleen than SM-102 | Kp [5, 7]: 46 | Kp [5, 8]: 962 | Kp [5, 9]: 59 | half-life ([5]; mouse plasma, IM mRNA-LNP): 15.3 h | AUC(0-t) ([5]; mouse plasma, IM mRNA-LNP): 1030 ng·h/mL | Cmax ([5]; mouse plasma, IM mRNA-LNP): 108 ng/mL | Overall tissue exposure (AUC0-tlast), liver ([5]; IM mRNA-LNP): 47.0 µg·h/g | Overall tissue exposure (AUC0-tlast), muscle ([5]; IM mRNA-LNP): 994 µg·h/g | time of peak plasma level ([5]; mouse plasma, IM mRNA-LNP): 3 h | Overall tissue exposure (AUC0-tlast), spleen ([5]; IM mRNA-LNP): 61.1 µg·h/g | detection in urine ([5]; IM mRNA-LNP): Neither Compound I-12 nor Compound I-6 were detected in urine | intramuscular expression (in words) [2]: higher intramuscular expression than DLin-MC3-DMA; also recorded: highest intramuscular expression of all compounds tested | Apparent pKa [3]: 6-7

Molecule: CCCCCCCCCCN(CCCCCCCCCC)CCNC(=O)CCN(CCO)CCC(=O)NCCN(CCCCCCCCCC)CCCCCCCCCC [Compound I-12]
organ in which the highest total flux was measured [4]: spleen | Kp [5, 7]: 50 | Kp [5, 8]: 236 | Kp [5, 9]: 28 | half-life ([5]; mouse plasma, IM mRNA-LNP): 295 h | AUC(0-t) ([5]; mouse plasma, IM mRNA-LNP): 13800 ng·h/mL | Cmax ([5]; mouse plasma, IM mRNA-LNP): 348 ng/mL | Overall tissue exposure (AUC0-tlast), liver ([5]; IM mRNA-LNP): 694 µg·h/g | Overall tissue exposure (AUC0-tlast), muscle ([5]; IM mRNA-LNP): 3244 µg·h/g | plasma AUC0-tlast, fold greater than Compound I-6 ([5]; mouse plasma, IM mRNA-LNP): ~13 fold | time of peak plasma level ([5]; mouse plasma, IM mRNA-LNP): 6 h | Overall tissue exposure (AUC0-tlast), spleen ([5]; IM mRNA-LNP): 391 µg·h/g | detection in urine ([5]; IM mRNA-LNP): Neither Compound I-12 nor Compound I-6 were detected in urine | excreted in feces ([5]; mouse, after 21 days post-dose): Approximately 18% | time required to have measurable levels of hydrolysis [6]: 10 days

Molecule: ALC-0315
time required to have measurable levels of hydrolysis [6]: 10 days

More lines, main results first:

Apparent pKa [3]: 6-7
Molecule: CCCCCCCCCCN(CCCCCCCCCC)CCCCOC(=O)CCCN(CCO)CCCC(=O)OCCCCN(CCCCCCCCCC)CCCCCCCCCC [Compound I-5]
organ in which the highest total flux was measured [4]: spleen | fraction of expression in the spleen compared with SM-102 ([4]; intravenous): higher fraction of expression in the spleen than SM-102 | intramuscular expression (in words) [2]: higher intramuscular expression than DLin-MC3-DMA

Apparent pKa [3]: 6-7
Molecule: CCCCCCCCCCN(CCCCCCCCCC)CCCCOC(=O)CCCCN(CCO)CCCCC(=O)OCCCCN(CCCCCCCCCC)CCCCCCCCCC [Compound I-7]
intramuscular expression (in words) [2]: higher intramuscular expression than DLin-MC3-DMA

in vitro degradation rate, faster than Compound I-4 ([6]; 10 mM): ~50% | Apparent pKa [3]: 6-7
Molecule: CCCCCCCCCCN(CCCCCCCCCC)CCCC(=O)OCCCN(CCO)CCCOC(=O)CCCN(CCCCCCCCCC)CCCCCCCCCC [Compound I-8]
organ in which the highest total flux was measured [4]: liver | fraction of expression in the spleen compared with SM-102 ([4]; intravenous): higher fraction of expression in the spleen than SM-102 | intramuscular expression (in words) [2]: higher intramuscular expression than DLin-MC3-DMA

time required to have measurable levels of hydrolysis [6]: 10 days
Molecule: CCCCC/C=C\C/C=C\CCCCCCCCC(CCCCCCCC/C=C\C/C=C\CCCCC)OC(=O)CCCN(C)C [DLin-MC3-DMA]

time to complete degradation (base-catalyzed hydrolysis) ([6]; 10 mM): ≤ 180 min
Molecule: CCCCCCCCCCCOC(=O)CCCCCN(CCO)CCCCCCCC(=O)OC(CCCCCCCC)CCCCCCCC [SM-102, reference compound]
organ in which the highest total flux was measured [4]: liver
